Laboratory results published in paper PMC10150366, “Discovery of an In Vivo Chemical Probe for BCL6 Inhibition by Optimization of Tricyclic Quinolinones” (Journal of Medicinal Chemistry, 2023).

Key:
ADRA2A = target: T1, ADRA2A (Homo sapiens, UniProt P08913); test: SAFETYscan cAMP ADRA2A Agonist; assay type: cell-based
T1 sequence (P08913 1-465): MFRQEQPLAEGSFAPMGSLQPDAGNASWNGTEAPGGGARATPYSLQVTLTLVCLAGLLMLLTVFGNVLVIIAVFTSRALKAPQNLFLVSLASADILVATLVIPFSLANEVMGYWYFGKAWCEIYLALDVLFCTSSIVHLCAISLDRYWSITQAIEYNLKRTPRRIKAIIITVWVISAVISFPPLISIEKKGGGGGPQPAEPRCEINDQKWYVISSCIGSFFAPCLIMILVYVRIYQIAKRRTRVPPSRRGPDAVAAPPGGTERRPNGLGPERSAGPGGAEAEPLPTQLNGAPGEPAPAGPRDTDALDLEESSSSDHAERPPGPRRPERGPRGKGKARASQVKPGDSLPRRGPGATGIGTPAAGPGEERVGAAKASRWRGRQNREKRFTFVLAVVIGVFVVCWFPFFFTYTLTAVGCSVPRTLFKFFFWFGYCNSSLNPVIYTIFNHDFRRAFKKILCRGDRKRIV
Text: (§1) Supplement jm3c00155_si_002.xlsx, sheet "SAFETYScan" | column: RC50 (uM); Max Response

CAV1.2 = CAV1.2 (Homo sapiens, UniProt Q13936); test: in vitro; assay type: cell-based
Text: as §1

COX1 = COX1 (Homo sapiens, UniProt P23219); test: SAFETYscan Enzymatic COX1 Inhibitor; assay type: biochemical
Text: (§2) Supplement jm3c00155_si_002.xlsx, sheet "SAFETYScan" | column: RC50 (uM); Hill; Max Response

HTR1B = HTR1B (Homo sapiens, UniProt P28222); test: SAFETYscan cAMP HTR1B Agonist; assay type: cell-based
Text: as §2

HTR2B = HTR2B (Homo sapiens, UniProt P41595); test: SAFETYscan Calcium Flux HTR2B Antagonist; assay type: cell-based
Text: as §1

HRH1 = HRH1 (Homo sapiens, UniProt P35367); test: SAFETYscan Calcium Flux HRH1 Agonist; assay type: cell-based
Text: as §1

CCKAR = target: T2, CCKAR (Homo sapiens, UniProt P32238); test: SAFETYscan Calcium Flux CCKAR Antagonist; assay type: cell-based
T2 sequence (P32238 1-428): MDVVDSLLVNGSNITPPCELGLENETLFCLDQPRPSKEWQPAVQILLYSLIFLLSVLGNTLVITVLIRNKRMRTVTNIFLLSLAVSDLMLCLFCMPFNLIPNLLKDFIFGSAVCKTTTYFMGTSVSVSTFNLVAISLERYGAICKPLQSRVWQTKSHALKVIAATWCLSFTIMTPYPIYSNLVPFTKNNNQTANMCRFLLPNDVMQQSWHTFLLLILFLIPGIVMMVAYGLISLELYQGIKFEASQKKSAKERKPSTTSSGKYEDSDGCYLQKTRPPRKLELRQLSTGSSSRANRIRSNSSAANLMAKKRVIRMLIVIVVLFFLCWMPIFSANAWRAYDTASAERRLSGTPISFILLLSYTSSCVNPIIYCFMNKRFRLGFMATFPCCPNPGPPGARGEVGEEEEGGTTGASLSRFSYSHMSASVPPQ
Text: as §1

Sequence of HTR1B (P28222 whole entry): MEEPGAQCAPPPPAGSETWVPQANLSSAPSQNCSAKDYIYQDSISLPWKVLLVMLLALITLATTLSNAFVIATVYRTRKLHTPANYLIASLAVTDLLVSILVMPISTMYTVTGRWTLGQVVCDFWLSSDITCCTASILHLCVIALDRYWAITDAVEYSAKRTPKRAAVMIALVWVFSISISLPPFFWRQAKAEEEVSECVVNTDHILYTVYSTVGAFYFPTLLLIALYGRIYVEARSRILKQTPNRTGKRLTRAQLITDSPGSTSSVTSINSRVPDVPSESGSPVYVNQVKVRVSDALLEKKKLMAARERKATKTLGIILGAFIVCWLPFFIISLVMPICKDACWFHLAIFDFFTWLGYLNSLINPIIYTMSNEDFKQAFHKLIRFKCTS
Sequence of COX1 (P23219 24-599): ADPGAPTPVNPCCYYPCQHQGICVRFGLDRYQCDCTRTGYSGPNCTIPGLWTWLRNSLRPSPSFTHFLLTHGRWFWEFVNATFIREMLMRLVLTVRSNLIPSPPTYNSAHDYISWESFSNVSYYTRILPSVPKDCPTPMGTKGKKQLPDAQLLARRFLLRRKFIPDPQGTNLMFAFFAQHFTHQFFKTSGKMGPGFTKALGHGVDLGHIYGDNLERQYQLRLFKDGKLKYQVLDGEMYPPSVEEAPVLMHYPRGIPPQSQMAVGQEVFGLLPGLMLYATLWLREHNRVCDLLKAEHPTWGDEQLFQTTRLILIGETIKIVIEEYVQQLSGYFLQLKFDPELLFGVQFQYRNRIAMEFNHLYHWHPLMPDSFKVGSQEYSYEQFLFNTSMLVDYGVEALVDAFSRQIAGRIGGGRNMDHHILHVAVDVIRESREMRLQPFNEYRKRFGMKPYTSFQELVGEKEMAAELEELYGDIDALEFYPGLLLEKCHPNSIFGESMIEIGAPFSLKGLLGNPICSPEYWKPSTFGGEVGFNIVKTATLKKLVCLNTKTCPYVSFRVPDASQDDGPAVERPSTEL
Sequence of CAV1.2 (Q13936 whole entry): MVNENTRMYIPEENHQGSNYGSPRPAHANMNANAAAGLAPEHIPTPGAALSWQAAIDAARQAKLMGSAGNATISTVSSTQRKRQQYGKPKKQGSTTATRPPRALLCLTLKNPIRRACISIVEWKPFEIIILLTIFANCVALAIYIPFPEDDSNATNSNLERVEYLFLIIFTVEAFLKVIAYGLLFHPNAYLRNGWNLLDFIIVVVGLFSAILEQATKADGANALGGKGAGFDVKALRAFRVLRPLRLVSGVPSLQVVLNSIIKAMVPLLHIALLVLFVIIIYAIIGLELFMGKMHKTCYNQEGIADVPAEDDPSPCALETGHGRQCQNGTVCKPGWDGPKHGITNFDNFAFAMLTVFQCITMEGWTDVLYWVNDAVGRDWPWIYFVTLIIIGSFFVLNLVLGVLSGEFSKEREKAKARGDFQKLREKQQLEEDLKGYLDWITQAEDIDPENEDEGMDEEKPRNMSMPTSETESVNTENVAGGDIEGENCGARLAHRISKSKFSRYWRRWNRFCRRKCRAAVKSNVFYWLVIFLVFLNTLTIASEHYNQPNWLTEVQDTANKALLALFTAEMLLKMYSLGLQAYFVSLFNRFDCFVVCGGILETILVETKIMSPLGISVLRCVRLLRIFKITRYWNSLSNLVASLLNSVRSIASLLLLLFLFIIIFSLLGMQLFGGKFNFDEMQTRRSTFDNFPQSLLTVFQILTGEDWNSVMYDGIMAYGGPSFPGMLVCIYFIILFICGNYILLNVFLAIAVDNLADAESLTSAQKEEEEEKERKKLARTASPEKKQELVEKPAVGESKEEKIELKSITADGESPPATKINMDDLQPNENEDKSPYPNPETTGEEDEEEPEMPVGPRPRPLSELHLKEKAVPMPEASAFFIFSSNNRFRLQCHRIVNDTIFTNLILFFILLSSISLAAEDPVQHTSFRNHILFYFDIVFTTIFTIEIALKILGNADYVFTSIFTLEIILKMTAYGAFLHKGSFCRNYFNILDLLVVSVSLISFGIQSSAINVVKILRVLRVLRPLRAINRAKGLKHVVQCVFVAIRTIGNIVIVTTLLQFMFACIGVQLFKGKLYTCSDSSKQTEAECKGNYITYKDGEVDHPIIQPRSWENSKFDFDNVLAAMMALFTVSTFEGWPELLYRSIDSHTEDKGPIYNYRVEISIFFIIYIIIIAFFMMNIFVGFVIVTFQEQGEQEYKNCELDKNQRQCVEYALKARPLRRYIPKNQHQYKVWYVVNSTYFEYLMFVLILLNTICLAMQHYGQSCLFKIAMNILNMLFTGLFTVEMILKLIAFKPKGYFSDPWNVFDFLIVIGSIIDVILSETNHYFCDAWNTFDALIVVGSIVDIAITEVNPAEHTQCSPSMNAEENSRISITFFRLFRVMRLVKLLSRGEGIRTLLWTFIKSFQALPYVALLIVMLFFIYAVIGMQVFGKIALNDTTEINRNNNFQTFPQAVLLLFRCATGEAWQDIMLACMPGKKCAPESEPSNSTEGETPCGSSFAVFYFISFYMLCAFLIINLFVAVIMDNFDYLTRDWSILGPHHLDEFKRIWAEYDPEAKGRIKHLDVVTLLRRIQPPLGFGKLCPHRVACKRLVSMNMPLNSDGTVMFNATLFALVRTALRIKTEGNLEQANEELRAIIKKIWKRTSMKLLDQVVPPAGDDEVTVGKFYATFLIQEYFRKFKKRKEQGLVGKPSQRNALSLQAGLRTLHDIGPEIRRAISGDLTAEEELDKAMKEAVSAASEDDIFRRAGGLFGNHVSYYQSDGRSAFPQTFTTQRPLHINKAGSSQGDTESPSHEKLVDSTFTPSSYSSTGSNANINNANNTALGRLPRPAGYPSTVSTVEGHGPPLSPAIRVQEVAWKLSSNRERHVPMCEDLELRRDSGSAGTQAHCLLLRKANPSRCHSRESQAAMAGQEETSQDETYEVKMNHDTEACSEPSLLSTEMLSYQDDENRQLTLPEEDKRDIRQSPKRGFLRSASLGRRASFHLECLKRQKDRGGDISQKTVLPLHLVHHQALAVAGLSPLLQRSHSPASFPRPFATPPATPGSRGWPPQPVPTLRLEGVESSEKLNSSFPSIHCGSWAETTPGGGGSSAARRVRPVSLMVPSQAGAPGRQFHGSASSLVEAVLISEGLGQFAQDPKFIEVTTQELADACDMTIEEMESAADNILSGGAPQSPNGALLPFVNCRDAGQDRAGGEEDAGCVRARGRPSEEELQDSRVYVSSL
Sequence of CAV1.2 (Q08289 whole entry partner): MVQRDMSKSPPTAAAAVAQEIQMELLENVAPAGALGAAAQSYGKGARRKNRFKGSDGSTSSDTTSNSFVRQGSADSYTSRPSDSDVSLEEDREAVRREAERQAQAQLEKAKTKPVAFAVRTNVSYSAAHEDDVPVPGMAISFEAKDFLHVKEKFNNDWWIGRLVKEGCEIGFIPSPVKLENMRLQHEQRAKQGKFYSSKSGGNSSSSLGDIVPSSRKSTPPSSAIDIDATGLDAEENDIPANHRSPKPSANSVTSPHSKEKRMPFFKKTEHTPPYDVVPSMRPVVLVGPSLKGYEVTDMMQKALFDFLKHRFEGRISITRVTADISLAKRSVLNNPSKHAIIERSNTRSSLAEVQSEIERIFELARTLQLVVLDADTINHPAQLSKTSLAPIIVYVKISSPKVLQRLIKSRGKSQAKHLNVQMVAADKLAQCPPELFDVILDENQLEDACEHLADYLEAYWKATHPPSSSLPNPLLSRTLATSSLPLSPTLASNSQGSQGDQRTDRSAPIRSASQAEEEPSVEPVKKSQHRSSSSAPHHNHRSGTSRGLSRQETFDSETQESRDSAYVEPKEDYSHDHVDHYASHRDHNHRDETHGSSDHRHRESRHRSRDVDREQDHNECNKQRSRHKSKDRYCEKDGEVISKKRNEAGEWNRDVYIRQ
Sequence of CAV1.2 (P54289 25-1103 partner): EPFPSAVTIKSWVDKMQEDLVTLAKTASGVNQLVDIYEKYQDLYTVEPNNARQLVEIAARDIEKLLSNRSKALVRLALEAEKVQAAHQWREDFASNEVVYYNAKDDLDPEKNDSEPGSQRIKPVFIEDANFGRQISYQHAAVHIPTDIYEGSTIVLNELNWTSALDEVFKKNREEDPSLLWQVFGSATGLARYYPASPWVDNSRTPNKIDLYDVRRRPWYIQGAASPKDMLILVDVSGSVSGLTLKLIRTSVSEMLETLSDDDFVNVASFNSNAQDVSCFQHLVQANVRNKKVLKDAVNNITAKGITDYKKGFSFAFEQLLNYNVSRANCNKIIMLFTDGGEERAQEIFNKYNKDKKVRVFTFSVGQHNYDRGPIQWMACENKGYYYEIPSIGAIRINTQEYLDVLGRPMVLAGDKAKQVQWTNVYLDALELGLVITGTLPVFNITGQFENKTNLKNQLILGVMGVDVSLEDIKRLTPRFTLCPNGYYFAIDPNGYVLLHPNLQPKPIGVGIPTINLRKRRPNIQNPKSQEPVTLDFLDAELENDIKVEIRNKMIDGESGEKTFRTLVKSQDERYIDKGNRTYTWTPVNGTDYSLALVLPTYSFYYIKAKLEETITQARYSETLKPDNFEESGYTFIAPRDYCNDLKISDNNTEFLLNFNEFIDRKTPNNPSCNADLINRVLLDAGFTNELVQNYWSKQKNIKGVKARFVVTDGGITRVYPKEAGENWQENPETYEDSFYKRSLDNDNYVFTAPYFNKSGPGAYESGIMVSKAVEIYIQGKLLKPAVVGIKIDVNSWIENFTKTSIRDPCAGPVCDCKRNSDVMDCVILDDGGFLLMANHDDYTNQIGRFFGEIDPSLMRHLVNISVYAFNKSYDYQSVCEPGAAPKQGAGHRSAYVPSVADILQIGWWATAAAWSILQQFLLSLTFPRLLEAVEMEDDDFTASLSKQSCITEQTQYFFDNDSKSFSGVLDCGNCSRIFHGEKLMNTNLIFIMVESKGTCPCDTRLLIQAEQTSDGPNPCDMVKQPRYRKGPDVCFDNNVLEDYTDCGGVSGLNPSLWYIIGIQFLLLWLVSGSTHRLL

For Cn1c(=O)c2c(c3cc(Nc4ccnc(F)c4Cl)ccc31)N[C@@H](C1CC1)C(F)(F)CO2 [compound 17, (S)-10-((3-chloro-2-fluoropyridin-4-yl)amino)-2-cyclopropyl-3,3-difluoro-7-methyl-1,2,3,4-tetrahydro-[1,4]oxazepino[2,3-c]quinolin-6(7H)-one], the EC50 (ADRA2A) was > 10 µM, the Emax (ADRA2A; ADRA2A, cAMP, Agonist, read-out: Max Response) was 38.9% and the Emax (CAV1.2) was 0%. For the same molecule, the IC50 (CAV1.2) was > 10 µM, the Hill (COX1) was 3.28 and the Emax (COX1; read-out: Max Response) was 93.1%. The IC50 (COX1; read-out: RC50 (IC50)) was 4.54 µM, the EC50 (HTR1B) was 9.13 µM and the Hill (HTR1B; HTR1B, cAMP, Agonist) was 0.76. For the same molecule, the Emax (HTR1B; HTR1B, cAMP, Agonist, read-out: Max Response) was 50.3%, the IC50 (HTR2B) was > 10 µM and the Emax (HTR2B; HTR2B, Calcium Flux, Antagonist, read-out: Max Response) was 0%. The Emax (HRH1; read-out: Max Response) was 0%, the EC50 (HRH1; read-out: RC50 (EC50)) was > 10 µM and the Emax (CCKAR; read-out: Max Response) was 0%. The IC50 (CCKAR; read-out: RC50 (IC50)) was > 10 µM.
